Assay results reported in PubChem BioAssay AID1259407 (Chemical Carcinogenesis Research Information System (CCRIS), 2018).
Calls of active or inactive are those of the source. No rule for the calls is given here.

Tested on: CCRIS mutagenicity, Ames/micronucleus/aberration tests
Test: CCRIS mutagenicity studies
[1] = Test System: AMES SALMONELLA TYPHIMURIUM, Strain/Indicator: TA98, Metabolic Activation: NONE, Method: PREINCUBATION
[2] = Test System: AMES SALMONELLA TYPHIMURIUM, Strain/Indicator: TA100, Metabolic Activation: NONE, Method: PREINCUBATION
[3] = Test System: AMES SALMONELLA TYPHIMURIUM, Strain/Indicator: TA1535, Metabolic Activation: NONE, Method: PREINCUBATION
[4] = Test System: AMES SALMONELLA TYPHIMURIUM, Strain/Indicator: TA1537, Metabolic Activation: NONE, Method: PREINCUBATION

Q: What does the source list for `CCCCOCCOC(=O)COc1ccc(Cl)cc1Cl`?
A: mutagenic call [1]: inactive; negative; mutagenic call (Test System: AMES SALMONELLA TYPHIMURIUM, Strain/Indicator: TA98, Metabolic Activation: RAT LIVER S-9, AROCLOR 1254, 10%, Method: PREINCUBATION): inactive; negative; mutagenic call [2]: inactive; negative; mutagenic call (Test System: AMES SALMONELLA TYPHIMURIUM, Strain/Indicator: TA100, Metabolic Activation: RAT LIVER S-9, AROCLOR 1254, 10%, Method: PREINCUBATION): inactive; negative; mutagenic call [3]: inactive; negative; mutagenic call (Test System: AMES SALMONELLA TYPHIMURIUM, Strain/Indicator: TA1535, Metabolic Activation: RAT LIVER S-9, AROCLOR 1254, 10%, Method: PREINCUBATION): inactive; negative; mutagenic call [4]: inactive; negative; mutagenic call (Test System: AMES SALMONELLA TYPHIMURIUM, Strain/Indicator: TA1537, Metabolic Activation: RAT LIVER S-9, AROCLOR 1254, 10%, Method: PREINCUBATION): inactive; negative; mutagenic call (Test System: UDS RAT HEPATOCYTES, Strain/Indicator: THYMIDINE INCORPORATION, Metabolic Activation: NONE, Method: AUTORADIOGRAPHY): inactive; negative

Q: `[Cl][Fe]([Cl])[Cl]` was tested. Which mutagenic call (Test System: AMES SALMONELLA TYPHIMURIUM, Strain/Indicator: TA98, Metabolic Activation: HAMSTER, LIVER, S-9, AROCLOR 1254, Method: STANDARD PLATE) did it give?
A: inactive; negative

Q: What about the mutagenic call [1] of the same compound?
A: inactive; negative

Q: What about the mutagenic call (Test System: AMES SALMONELLA TYPHIMURIUM, Strain/Indicator: TA98, Metabolic Activation: NONE, Method: STANDARD PLATE) of the same compound?
A: inactive; negative

Q: What about the mutagenic call (Test System: AMES SALMONELLA TYPHIMURIUM, Strain/Indicator: TA98, Metabolic Activation: RAT, LIVER, S-9, AROCLOR 1254, Method: STANDARD PLATE) of the same compound?
A: inactive; negative

Q: What about the mutagenic call (Test System: AMES SALMONELLA TYPHIMURIUM, Strain/Indicator: TA98, Metabolic Activation: RAT, LIVER, S-9, KC 500, Method: PREINCUBATION) of the same compound?
A: inactive; negative

Q: What about the mutagenic call (Test System: AMES SALMONELLA TYPHIMURIUM, Strain/Indicator: TA100, Metabolic Activation: HAMSTER, LIVER, S-9, AROCLOR 1254, Method: STANDARD PLATE) of the same compound?
A: inactive; negative

Q: What about the mutagenic call [2] of the same compound?
A: inactive; negative

Q: And the mutagenic call (Test System: AMES SALMONELLA TYPHIMURIUM, Strain/Indicator: TA100, Metabolic Activation: NONE, Method: STANDARD PLATE)?
A: inactive; negative

Q: And the mutagenic call (Test System: AMES SALMONELLA TYPHIMURIUM, Strain/Indicator: TA100, Metabolic Activation: RAT, LIVER, S-9, AROCLOR 1254, Method: STANDARD PLATE)?
A: inactive; negative

Q: And the mutagenic call (Test System: AMES SALMONELLA TYPHIMURIUM, Strain/Indicator: TA100, Metabolic Activation: RAT, LIVER, S-9, KC 500, Method: PREINCUBATION)?
A: inactive; negative

Q: What about the mutagenic call (Test System: AMES SALMONELLA TYPHIMURIUM, Strain/Indicator: TA1535, Metabolic Activation: HAMSTER, LIVER, S-9, AROCLOR 1254, Method: STANDARD PLATE) of the same compound?
A: inactive; negative

Q: And the mutagenic call [3]?
A: inactive; negative

Q: What about the mutagenic call (Test System: AMES SALMONELLA TYPHIMURIUM, Strain/Indicator: TA1535, Metabolic Activation: NONE, Method: STANDARD PLATE) of the same compound?
A: inactive; negative

Q: What about the mutagenic call (Test System: AMES SALMONELLA TYPHIMURIUM, Strain/Indicator: TA1535, Metabolic Activation: RAT, LIVER, S-9, AROCLOR 1254, Method: STANDARD PLATE) of the same compound?
A: inactive; negative

Q: And the mutagenic call (Test System: AMES SALMONELLA TYPHIMURIUM, Strain/Indicator: TA1535, Metabolic Activation: RAT, LIVER, S-9, KC 500, Method: PREINCUBATION)?
A: inactive; negative

Q: And the mutagenic call (Test System: AMES SALMONELLA TYPHIMURIUM, Strain/Indicator: TA1537, Metabolic Activation: HAMSTER, LIVER, S-9, AROCLOR 1254, Method: STANDARD PLATE)?
A: inactive; negative

Q: What about the mutagenic call [4] of the same compound?
A: inactive; negative

Q: And the mutagenic call (Test System: AMES SALMONELLA TYPHIMURIUM, Strain/Indicator: TA1537, Metabolic Activation: NONE, Method: STANDARD PLATE)?
A: inactive; negative

Q: And the mutagenic call (Test System: AMES SALMONELLA TYPHIMURIUM, Strain/Indicator: TA1537, Metabolic Activation: RAT, LIVER, S-9, AROCLOR 1254, Method: STANDARD PLATE)?
A: inactive; negative

Q: What about the mutagenic call (Test System: AMES SALMONELLA TYPHIMURIUM, Strain/Indicator: TA1537, Metabolic Activation: RAT, LIVER, S-9, KC 500, Method: PREINCUBATION) of the same compound?
A: inactive; negative

Q: What about the mutagenic call (Test System: AMES SALMONELLA TYPHIMURIUM, Strain/Indicator: TA1538, Metabolic Activation: HAMSTER, LIVER, S-9, AROCLOR 1254, Method: STANDARD PLATE) of the same compound?
A: inactive; negative

Q: What about the mutagenic call (Test System: AMES SALMONELLA TYPHIMURIUM, Strain/Indicator: TA1538, Metabolic Activation: NONE, Method: PREINCUBATION) of the same compound?
A: inactive; negative

Q: And the mutagenic call (Test System: AMES SALMONELLA TYPHIMURIUM, Strain/Indicator: TA1538, Metabolic Activation: NONE, Method: STANDARD PLATE)?
A: inactive; negative

Q: And the mutagenic call (Test System: AMES SALMONELLA TYPHIMURIUM, Strain/Indicator: TA1538, Metabolic Activation: RAT, LIVER, S-9, AROCLOR 1254, Method: STANDARD PLATE)?
A: inactive; negative

Q: And the mutagenic call (Test System: AMES SALMONELLA TYPHIMURIUM, Strain/Indicator: TA1538, Metabolic Activation: RAT, LIVER, S-9, KC 500, Method: PREINCUBATION)?
A: inactive; negative

Q: What about the mutagenic call (Test System: E. COLI, Strain/Indicator: WP2 UVRA, Metabolic Activation: NONE, Method: PREINCUBATION) of the same compound?
A: inactive; negative

Q: What about the mutagenic call (Test System: E. COLI, Strain/Indicator: WP2 UVRA, Metabolic Activation: RAT, LIVER, S-9, KC 500, Method: PREINCUBATION) of the same compound?
A: inactive; negative

Q: What about the mutagenic call (Test System: MOUSE LYMPHOMA, Strain/Indicator: L5178Y (TK+/TK-), Metabolic Activation: NONE, Method: SUSPENSION/PLATE) of the same compound?
A: inactive; negative

Q: What about the mutagenic call (Test System: MOUSE LYMPHOMA, Strain/Indicator: L5178Y (TK+/TK-), Metabolic Activation: RAT, LIVER, S-9, AROCLOR 1254, Method: SUSPENSION/PLATE) of the same compound?
A: active; positive

Q: With `CNCC(O)c1ccc(O)c(O)c1` (configuration not stated) as the compound, how does the mutagenic call (Test System: AMES SALMONELLA TYPHIMURIUM, Strain/Indicator: TA102, Metabolic Activation: NONE, Method: STANDARD PLATE) read?
A: inactive; negative

Q: What about the mutagenic call (Test System: AMES SALMONELLA TYPHIMURIUM, Strain/Indicator: TA2638, Metabolic Activation: NONE, Method: STANDARD PLATE) of the same compound?
A: inactive; negative

Q: And the mutagenic call (Test System: E. COLI, Strain/Indicator: WP2 (PKM101), Metabolic Activation: NONE, Method: STANDARD PLATE)?
A: inactive; negative

Q: What about the mutagenic call (Test System: E. COLI, Strain/Indicator: WP2 UVRA (PKM101), Metabolic Activation: NONE, Method: STANDARD PLATE) of the same compound?
A: inactive; negative

Q: What does the source list for `Cc1c(C(C)C)c(=O)n(-c2ccccc2)n1C`?
A: mutagenic call (Test System: AMES SALMONELLA TYPHIMURIUM, Strain/Indicator: TA98, Metabolic Activation: GUINEA PIG, LIVER, S-9, PCB, Method: PREINCUBATION): inactive; negative; mutagenic call (Test System: AMES SALMONELLA TYPHIMURIUM, Strain/Indicator: TA98, Metabolic Activation: HAMSTER, LIVER, S-9, PCB, Method: PREINCUBATION): inactive; negative; mutagenic call (Test System: AMES SALMONELLA TYPHIMURIUM, Strain/Indicator: TA98, Metabolic Activation: MOUSE, LIVER, S-9, PCB, Method: PREINCUBATION): inactive; negative; mutagenic call [1]: inactive; negative; mutagenic call (Test System: AMES SALMONELLA TYPHIMURIUM, Strain/Indicator: TA98, Metabolic Activation: RAT, LIVER, S-9, PCB, Method: PREINCUBATION): inactive; negative; mutagenic call (Test System: AMES SALMONELLA TYPHIMURIUM, Strain/Indicator: TA100, Metabolic Activation: GUINEA PIG, LIVER, S-9, PCB, Method: PREINCUBATION): inactive; negative; mutagenic call (Test System: AMES SALMONELLA TYPHIMURIUM, Strain/Indicator: TA100, Metabolic Activation: HAMSTER, LIVER, S-9, PCB, Method: PREINCUBATION): inactive; negative; mutagenic call (Test System: AMES SALMONELLA TYPHIMURIUM, Strain/Indicator: TA100, Metabolic Activation: MOUSE, LIVER, S-9, PCB, Method: PREINCUBATION): inactive; negative; mutagenic call [2]: inactive; negative; mutagenic call (Test System: AMES SALMONELLA TYPHIMURIUM, Strain/Indicator: TA100, Metabolic Activation: RAT, LIVER, S-9, PCB, Method: PREINCUBATION): inactive; negative
